Reference: BigSolDB 2.1

O=P1(Oc2ccccc2)OCC2(CO1)COP(=O)(Oc1ccccc1)OC2 (centres undefined)
Details	solubility (mole fraction)
in 1,4-dioxane, 293.26 K	0.00132
in 1,4-dioxane, 298.45 K	0.00152
in 1,4-dioxane, 303.26 K	0.00181
in 1,4-dioxane, 308.67 K	0.00214
in 1,4-dioxane, 313.24 K	0.00253
in 1,4-dioxane, 318.36 K	0.00294
in 1,4-dioxane, 323.35 K	0.00335
in 1,4-dioxane, 328.23 K	0.00383
in 1,4-dioxane, 333.36 K	0.00438
in 1,4-dioxane, 338.25 K	0.00499
in 2-butanone, 293.15 K	0.00399
in 2-butanone, 298.16 K	0.00446
in 2-butanone, 303.17 K	0.00506
in 2-butanone, 308.18 K	0.00575
in 2-butanone, 313.16 K	0.00638
in 2-butanone, 318.19 K	0.00733
in 2-butanone, 323.15 K	0.00809
in 2-ethoxyethanol, 293.24 K	0.00325
in 2-ethoxyethanol, 298.24 K	0.00392
in 2-ethoxyethanol, 303.16 K	0.00455
in 2-ethoxyethanol, 308.17 K	0.00543
in 2-ethoxyethanol, 313.23 K	0.00637
in 2-ethoxyethanol, 318.16 K	0.00756
in 2-ethoxyethanol, 323.18 K	0.00897
in 2-ethoxyethanol, 328.15 K	0.0104
in 2-ethoxyethanol, 333.16 K	0.0122
in 2-ethoxyethanol, 338.17 K	0.014
in 2-ethoxyethanol, 343.16 K	0.0161
in 2-ethoxyethanol, 348.17 K	0.0185
in 2-ethoxyethanol, 353.16 K	0.0215
in 2-ethoxyethanol, 358.16 K	0.0244
in 2-ethoxyethanol, 363.17 K	0.0277
in 2-ethoxyethanol, 368.16 K	0.0319
in THF, 293.53 K	0.00524
in THF, 298.16 K	0.00615
in THF, 303.49 K	0.00727
in THF, 308.25 K	0.00845
in THF, 313.35 K	0.00996
in THF, 318.31 K	0.0115
in THF, 323.35 K	0.0133
in THF, 328.46 K	0.0153
in acetone, 293.17 K	0.00237
in acetone, 298.16 K	0.00275
in acetone, 303.26 K	0.00322
in acetone, 308.57 K	0.00371
in acetone, 313.24 K	0.00421
in acetone, 318.07 K	0.00479
in acetone, 323.25 K	0.00542
in acetone, 328.36 K	0.00622
in acetonitrile, 293.31 K	0.00156
in acetonitrile, 298.17 K	0.00187
in acetonitrile, 303.26 K	0.00223
in acetonitrile, 308.57 K	0.00273
in acetonitrile, 313.35 K	0.00318
in acetonitrile, 318.24 K	0.00375
in acetonitrile, 323.36 K	0.00438
in acetonitrile, 328.27 K	0.00522
in acetonitrile, 333.35 K	0.00614
in acetonitrile, 338.56 K	0.00738
in acetonitrile, 343.44 K	0.00841
in benzene, 293.17 K	0.00119
in benzene, 298.16 K	0.00121
in benzene, 304.76 K	0.00124
in benzene, 308.37 K	0.00127
in benzene, 313.55 K	0.00129
in benzene, 318.26 K	0.00133
in benzene, 323.24 K	0.00136
in benzene, 328.43 K	0.00138
in benzene, 333.46 K	0.00141
in benzene, 338.34 K	0.00143
in benzene, 343.26 K	0.00145
in benzene, 348.35 K	0.00147
in chloroform, 293.25 K	0.00224
in chloroform, 298.17 K	0.00319
in chloroform, 303.25 K	0.00436
in chloroform, 308.56 K	0.00611
in chloroform, 313.25 K	0.00806
in chloroform, 318.25 K	0.0106
in chloroform, 323.04 K	0.0139
in chloroform, 328.35 K	0.0188
in chloroform, 333.13 K	0.0234
in dichloromethane, 293.16 K	0.00103
in dichloromethane, 299.22 K	0.00127
in dichloromethane, 303.86 K	0.00146
in dichloromethane, 307.6 K	0.00167
in diethyl ether, 291.95 K	0.00179
in diethyl ether, 295.37 K	0.00204
in diethyl ether, 299.26 K	0.00234
in diethyl ether, 303.55 K	0.00275
in ethanol, 298.16 K	0.00136
in ethanol, 303.15 K	0.00157
in ethanol, 308.16 K	0.00187
in ethanol, 313.14 K	0.00218
in ethanol, 318.16 K	0.00246
in ethanol, 323.16 K	0.00288
in ethanol, 328.17 K	0.00329
in ethanol, 333.16 K	0.00383
in ethanol, 338.16 K	0.00426
in ethanol, 343.15 K	0.00485
in ethyl acetate, 293.25 K	0.00107
in ethyl acetate, 298.46 K	0.00132
in ethyl acetate, 303.27 K	0.00158
in ethyl acetate, 308.66 K	0.00193
in ethyl acetate, 313.27 K	0.0023
in ethyl acetate, 318.35 K	0.00281
in ethyl acetate, 323.35 K	0.00334
in ethyl acetate, 328.26 K	0.00392
in ethyl acetate, 333.37 K	0.00459
in ethyl acetate, 338.26 K	0.00539
in methanol, 293.24 K	0.00271
in methanol, 298.24 K	0.00298
in methanol, 303.16 K	0.00329
in methanol, 308.17 K	0.00365
in methanol, 313.23 K	0.00401
in methanol, 318.16 K	0.00443
in methanol, 323.15 K	0.00483
in pyridine, 293.43 K	0.00813
in pyridine, 298.35 K	0.00885
in pyridine, 303.51 K	0.00964
in pyridine, 308.35 K	0.0104
in pyridine, 313.35 K	0.0114
in pyridine, 318.31 K	0.0123
in pyridine, 323.35 K	0.0132
in pyridine, 328.45 K	0.0141
in toluene, 298.17 K	0.00115
in toluene, 303.25 K	0.00143
in toluene, 308.56 K	0.00185
in toluene, 313.34 K	0.00229
in toluene, 318.26 K	0.00285
in toluene, 323.37 K	0.00352
in toluene, 328.25 K	0.00424
in toluene, 333.34 K	0.00536
in toluene, 338.56 K	0.00646
in toluene, 343.45 K	0.00781
in water, 293.18 K	0.00014
in water, 298.77 K	0.0002
in water, 308.37 K	0.0003
in water, 313.56 K	0.00037
in water, 318.25 K	0.0005
in water, 323.24 K	0.00064
in water, 328.43 K	0.00086
in water, 333.45 K	0.00116
in water, 338.36 K	0.00148
in water, 343.26 K	0.00188
in water, 348.35 K	0.00241
in water, 353.24 K	0.00295
in water, 358.25 K	0.00371
in water, 363.36 K	0.00477
in water, 368.25 K	0.00591
